{
  "source": "patent US9650395B2",
  "about": "“Antibacterial compounds and methods for use” (PTC Therapeutics, Inc., priority 2011, dated 2017)",
  "key": {"[1]": {"system": "super sensitive Gram-negative Escherichia coli (E. coli) BAS849", "assay": "Antibacterial activity, microbroth dilution MIC, E. coli BAS849", "format": "cell-based", "settings": "Escherichia coli, read-out: MIC, BAS849"}, "[2]": {"system": "Gram-positive Staphylococcus aureus (S. aureus) 29213", "assay": "Antibacterial activity, microbroth dilution MIC, S. aureus 29213", "format": "cell-based", "settings": "Staphylococcus aureus; S. aureus 29213, microbroth dilution; read-out: MIC, 29213"}, "[3]": {"system": "control Gram-negative E. coli 25922 strain", "assay": "Antibacterial activity, microbroth dilution MIC, E. coli 25922", "format": "cell-based, Escherichia coli", "settings": "Escherichia coli; E. coli 25922, microbroth dilution; read-out: MIC, 25922"}, "[4]": {"system": "quinolone resistant E. coli LZ3111", "assay": "Antibacterial activity, MIC, quinolone resistant E. coli LZ3111", "format": "cell-based, Escherichia coli", "settings": "Escherichia coli, read-out: MIC, LZ3111", "excerpt": "The antibacterial activity from a microbroth dilution method may be presented as the minimum inhibitory concentration (MIC in […]). The MIC value is the lowest concentration of a drug which prevents macroscopically visible bacterial growth under test conditions.\nMutations in these regions are known to confer a high level resistance to the quinolone class of antibiotics."}, "[5]": {"settings": "E. coli BAS849, microbroth dilution"}},
  "note": "Like-named read-outs stand apart in the source and are kept apart here.",
  "data": [
    {"smiles": "CCc1cc(C(=O)O)c(=O)[nH]c1-c1ccc(N2CCC(C)(CN)C2)cc1", "note": "(stereo not shown) [Cpd 235, 6-{4-[3-(aminomethyl)-3-methylpyrrolidin-1-yl]phenyl}-5-ethyl-2-oxo-1,2-dihydropyridine-3-carboxylic acid]", "values": [
      {"measurement": "MIC", "setting": "[1]; [5]", "result": "1 to 3.5", "unit": "µg/mL"},
      {"measurement": "MIC", "setting": "[2]", "result": "12.5 to 150", "unit": "µg/mL"},
      {"measurement": "MIC", "setting": "[3]", "result": "12.5 to 150", "unit": "µg/mL"},
      {"measurement": "MIC", "setting": "[4]", "result": "12.5 to 150", "unit": "µg/mL"}
    ]},
    {"smiles": "CCc1cc(C(=O)O)c(=O)[nH]c1-c1ccc(N2CCC(CNCc3cccc(Cl)c3)C2)cc1", "note": "(stereo not shown) [Cpd 236, 6-[4-(3-{[(3-chlorobenzyl)amino]methyl}pyrrolidin-1-yl)phenyl]-5-ethyl-2-oxo-1,2-dihydropyridine-3-carboxylic acid]", "values": [
      {"measurement": "MIC", "setting": "[1]; [5]", "result": "< 1", "unit": "µg/mL"},
      {"measurement": "MIC", "setting": "[2]", "result": "3.5 to 12.5", "unit": "µg/mL"},
      {"measurement": "MIC", "setting": "[3]", "result": "1 to 3.5", "unit": "µg/mL"},
      {"measurement": "MIC", "setting": "[4]", "result": "12.5 to 150", "unit": "µg/mL"}
    ]},
    {"smiles": "CCc1cc(C(=O)O)c(=O)[nH]c1-c1ccc(N2CCC(CNCc3ccc(Cl)cc3)C2)cc1", "note": "(stereo not shown) [Cpd 237, 6-[4-(3-{[(4-chlorobenzyl)amino]methyl}pyrrolidin-1-yl)phenyl]-5-ethyl-2-oxo-1,2-dihydropyridine-3-carboxylic acid]", "values": [
      {"measurement": "MIC", "setting": "[1]; [5]", "result": "< 1", "unit": "µg/mL"},
      {"measurement": "MIC", "setting": "[2]", "result": "3.5 to 12.5", "unit": "µg/mL"},
      {"measurement": "MIC", "setting": "[3]", "result": "< 1", "unit": "µg/mL"},
      {"measurement": "MIC", "setting": "[4]", "result": "12.5 to 150", "unit": "µg/mL"}
    ]},
    {"smiles": "CCc1cc(C(=O)O)c(=O)[nH]c1-c1ccc(N2CCC(CNCc3cccc(F)c3)C2)cc1", "note": "(stereo not shown) [Cpd 238, 5-ethyl-6-[4-(3-{[(3-fluorobenzyl)amino]methyl}pyrrolidin-1-yl)phenyl]-2-oxo-1,2-dihydropyridine-3-carboxylic acid]", "values": [
      {"measurement": "MIC", "setting": "[1]; [5]", "result": "< 1", "unit": "µg/mL"},
      {"measurement": "MIC", "setting": "[2]", "result": "12.5 to 150", "unit": "µg/mL"},
      {"measurement": "MIC", "setting": "[3]", "result": "1 to 3.5", "unit": "µg/mL"},
      {"measurement": "MIC", "setting": "[4]", "result": "12.5 to 150", "unit": "µg/mL"}
    ]},
    {"smiles": "CCc1cc(C(=O)O)c(=O)[nH]c1-c1ccc(N2CCC(CNCc3ccc(F)cc3)C2)cc1", "note": "(stereo not shown) [Cpd 239, 5-ethyl-6-[4-(3-{[(4-fluorobenzyl)amino]methyl}pyrrolidin-1-yl)phenyl]-2-oxo-1,2-dihydropyridine-3-carboxylic acid]", "values": [
      {"measurement": "MIC", "setting": "[1]; [5]", "result": "< 1", "unit": "µg/mL"},
      {"measurement": "MIC", "setting": "[2]", "result": "12.5 to 150", "unit": "µg/mL"},
      {"measurement": "MIC", "setting": "[3]", "result": "< 1", "unit": "µg/mL"},
      {"measurement": "MIC", "setting": "[4]", "result": "12.5 to 150", "unit": "µg/mL"}
    ]},
    {"smiles": "CCc1cc(C(=O)O)c(=O)[nH]c1-c1ccc(N2CCC(CNCc3ccccc3F)C2)cc1", "note": "(stereo not shown) [Cpd 240, 5-ethyl-6-[4-(3-{[(2-fluorobenzyl)amino]methyl}pyrrolidin-1-yl)phenyl]-2-oxo-1,2-dihydropyridine-3-carboxylic acid]", "values": [
      {"measurement": "MIC", "setting": "[1]; [5]", "result": "< 1", "unit": "µg/mL"},
      {"measurement": "MIC", "setting": "[2]", "result": "12.5 to 150", "unit": "µg/mL"},
      {"measurement": "MIC", "setting": "[3]", "result": "1 to 3.5", "unit": "µg/mL"},
      {"measurement": "MIC", "setting": "[4]", "result": "12.5 to 150", "unit": "µg/mL"}
    ]},
    {"smiles": "CCc1cc(C(=O)O)c(=O)[nH]c1-c1ccc(N2CCC(CNCc3cccnc3)C2)cc1", "note": "(stereo not shown) [Cpd 241, 5-ethyl-2-oxo-6-[4-(3-{[(pyridin-3-ylmethyl)amino]methyl}pyrrolidin-1-yl)phenyl]-1,2-dihydropyridine-3-carboxylic acid]", "values": [
      {"measurement": "MIC", "setting": "[1]; [5]", "result": "< 1", "unit": "µg/mL"},
      {"measurement": "MIC", "setting": "[2]", "result": "12.5 to 150", "unit": "µg/mL"},
      {"measurement": "MIC", "setting": "[3]", "result": "< 1", "unit": "µg/mL"},
      {"measurement": "MIC", "setting": "[4]", "result": "12.5 to 150", "unit": "µg/mL"}
    ]},
    {"smiles": "CCc1cc(C(=O)O)c(=O)[nH]c1-c1ccc(N2CCC(CNCc3ccncc3)C2)cc1", "note": "(stereo not shown) [Cpd 242, 5-ethyl-2-oxo-6-[4-(3-{[(pyridin-4-ylmethyl)amino]methyl}pyrrolidin-1-yl)phenyl]-1,2-dihydropyridine-3-carboxylic acid]", "values": [
      {"measurement": "MIC", "setting": "[1]; [5]", "result": "< 1", "unit": "µg/mL"},
      {"measurement": "MIC", "setting": "[2]", "result": "12.5 to 150", "unit": "µg/mL"},
      {"measurement": "MIC", "setting": "[3]", "result": "1 to 3.5", "unit": "µg/mL"},
      {"measurement": "MIC", "setting": "[4]", "result": "12.5 to 150", "unit": "µg/mL"}
    ]},
    {"smiles": "CCc1cc(C(=O)O)c(=O)[nH]c1-c1ccc(N2CCC(CNCc3ccccn3)C2)cc1", "note": "(stereo not shown) [Cpd 243, 5-ethyl-2-oxo-6-[4-(3-{[(pyridin-2-ylmethyl)amino]methyl}pyrrolidin-1-yl)phenyl]-1,2-dihydropyridine-3-carboxylic acid]", "values": [
      {"measurement": "MIC", "setting": "[1]; [5]", "result": "< 1", "unit": "µg/mL"},
      {"measurement": "MIC", "setting": "[2]", "result": "12.5 to 150", "unit": "µg/mL"},
      {"measurement": "MIC", "setting": "[3]", "result": "1 to 3.5", "unit": "µg/mL"},
      {"measurement": "MIC", "setting": "[4]", "result": "12.5 to 150", "unit": "µg/mL"}
    ]},
    {"smiles": "CCc1cc(C(=O)O)c(=O)[nH]c1-c1ccc(N2C[C@H]3CC[C@H](N=[N+]=[N-])[C@H]3C2)cc1.O=C(O)C(F)(F)F", "note": "[Cpd 245, 6-{4-[(3aR,4S,6aS)-4-azidohexahydrocyclopenta[c]pyrrol-2(1H)-yl]phenyl}-5-ethyl-2-oxo-1,2-dihydropyridine-3-carboxylic acid trifluoroacetate]", "values": [
      {"measurement": "MIC", "setting": "[1]", "result": "< 1", "unit": "µg/mL"},
      {"measurement": "MIC", "setting": "[2]", "result": "3.5 to 12.5", "unit": "µg/mL"},
      {"measurement": "MIC", "setting": "[3]", "result": "3.5 to 12.5", "unit": "µg/mL"},
      {"measurement": "MIC", "setting": "[4]", "result": "12.5 to 150", "unit": "µg/mL"}
    ]},
    {"smiles": "CCc1c(-c2ccc(N3C[C@H]4C[C@@H](N)C[C@H]4C3)cc2)[nH]c(=O)c(C(=O)O)c1O", "note": "[Cpd 248, 6-{4-[(3aR,5r,6aS)-5-aminohexahydrocyclopenta[c]pyrrol-2(1H)-yl]phenyl}-5-ethyl-4-hydroxy-2-oxo-1,2-dihydropyridine-3-carboxylic acid]", "values": [
      {"measurement": "MIC", "setting": "[1]; [5]", "result": "1 to 3.5", "unit": "µg/mL"},
      {"measurement": "MIC", "setting": "[2]", "result": "12.5 to 150", "unit": "µg/mL"},
      {"measurement": "MIC", "setting": "[3]", "result": "12.5 to 150", "unit": "µg/mL"},
      {"measurement": "MIC", "setting": "[4]", "result": "12.5 to 150", "unit": "µg/mL"}
    ]},
    {"smiles": "CCc1c(-c2ccc(N3C[C@H](CN(Cc4ccccc4)Cc4ccccc4)[C@@H](C)C3)cc2)[nH]c(=O)c(C(=O)O)c1O", "note": "[Cpd 249, 6-(4-{(3S,4R)-3-[(dibenzylamino)methyl]-4-methylpyrrolidin-1-yl}phenyl)-5-ethyl-4-hydroxy-2-oxo-1,2-dihydropyridine-3-carboxylic acid]", "values": [
      {"measurement": "MIC", "setting": "[1]; [5]", "result": "12.5 to 150", "unit": "µg/mL"},
      {"measurement": "MIC", "setting": "[2]", "result": "12.5 to 150", "unit": "µg/mL"},
      {"measurement": "MIC", "setting": "[3]", "result": "12.5 to 150", "unit": "µg/mL"},
      {"measurement": "MIC", "setting": "[4]", "result": "12.5 to 150", "unit": "µg/mL"}
    ]},
    {"smiles": "CCc1c(-c2ccc(N3C[C@H]4C[C@@H](NCc5ccccc5)C[C@H]4C3)cc2)[nH]c(=O)c(C(=O)O)c1O", "note": "[Cpd 250, 6-{4-[(3aR,5r,6aS)-5-(benzylamino)hexahydrocyclopenta[c]pyrrol-2(1H)-yl]phenyl}-5-ethyl-4-hydroxy-2-oxo-1,2-dihydropyridine-3-carboxylic acid]", "values": [
      {"measurement": "MIC", "setting": "[1]; [5]", "result": "3.5 to 12.5", "unit": "µg/mL"},
      {"measurement": "MIC", "setting": "[2]", "result": "12.5 to 150", "unit": "µg/mL"},
      {"measurement": "MIC", "setting": "[3]", "result": "12.5 to 150", "unit": "µg/mL"},
      {"measurement": "MIC", "setting": "[4]", "result": "12.5 to 150", "unit": "µg/mL"}
    ]}
  ]
}
